Reference: patent publication US7897349B2, “Macrophage migration inhibitory factor (MIF) as marker for urological inflammatory disease” (The United States of America as represented by the …, priority 2003, dated 2011)
Ends that are not written are not given here.

What was measured:
prostate and bladder = system: prostate and bladder
From the text: In CPPS, prostatic inflammation is suspected to result in referred visceral pain and urodynamic changes. Therefore, we established a model of prostatitis that would allow the study of histological, molecular and physiological changes in the bladder and the prostate, in an effort to correlate it to visceral referred pain.

[1] = system: bladder, lumbosacral spinal cord, DRG and MPG; assay: Intravesical bacterial endotoxin (LPS) model of bladder inflammation; assay type: in vivo, rat
From the text: Intravesical instillation of a bacterial endotoxin (lipopolysaccharide from E. Coli) has been documented to produce histological signs of bladder inflammation (Stein et al., J. Urol. 155: 1133-1138, 1996; Saban et al., Am. J Pathol. 160: 2095-2110, 2002; Wheeler et al., Eur. J Pharmacol. 417: 239-248, 2001). […] Therefore, we examined the effects of intravesical LPS on the levels of MIF and cox-2 on the bladder, lumbosacral spinal cord, DRG and MPG.

bladder and the prostate = assay: Systemic substance P (SP) model of neurogenic inflammation in the bladder and prostate; assay type: in vivo, rat
From the text: We sought to determine if neurogenic inflammation alone (without producing damage or insult to the bladder epithelia, as was the case in the acid and LPS cystitis models) was also able to alter MIF levels in the bladder. In addition, we examined the prostate for signs of inflammation. Systemic injections of SP elicited plasma extravasation and edema (neurogenic inflammation) in the bladder and the prostate. We examined MIF and cox-2 to compare the results with our previous models of bladder injury (acid and LPS). In addition, we examined nerve growth factor (NGF) and the proto-oncogene c-fos.

bladder = assay: Substance P induced changes in CD74, CD44, p-ERK1/2 and MIF in the rat bladder; assay type: in vivo; settings: subcutaneous SP 40 μg/kg; one hour
Experimental: The materials and methods are identical to Meyer-Siegler et al. (Journal of Urology 173: February, 2005), the disclosure of which is incorporated herein by reference. In anesthetized rats, the bladder was isolated by cutting the ureters and urine was replaced by saline as intraluminal fluid ([…]). One hour after subcutaneous SP (40 μg/kg) or saline administration, the ILF and bladder were collected. Bladder tissue was analyzed for CD74 and CD44 by immunohistochemistry. Western blot analysis determined the relative amounts of bladder tissue MIF, CD74, CD44, and p-ERK1/2. ILF immunoprecipitation followed by Western blot analysis was performed to identify an association of MIF with CD74 and/or CD44

For C=O [formalin], the “MIF protein level in the bladder” value (prostate and bladder; animals receiving formalin in the prostate) was “significantly reduced”, the “persistence of bladder hyperreflexia” value (prostate and bladder; chemical irritation of the prostate) was “at least 1 hour” and the bladder intercontraction interval (prostate and bladder; formalin injected into the prostate, maximal in first ten minutes, persisted 60 min) was “significant decrease”.
lipopolysaccharide from E. Coli [LPS] was tested, and the “histological changes of the bladder” value ([1]; intravesical LPS) was “marked histological changes indicative of cystitis” and the “MIF protein and mRNA in all the tissues, including the bladder” value ([1]; intravesical LPS treated rats) was “significant increases”.
In the case of “Substance P (RPKPQQFFGLM-NH2; ends and bridges not checked; UniProt P20366 58-68, looked up) [SP, tachykinin; systemic injection used as model of neurogenic inflammation]”, the “cox-2 and c-fos levels in the bladder and the prostate” value (bladder and the prostate; SP group) is reported as “significantly elevated”, the “MIF levels in the urine and serum” value (bladder and the prostate; SP treated animals with isolated bladders) is reported as “significantly increased” and the “content of MIF in bladders and prostates” value (bladder and the prostate; SP treated compared to saline treated) is reported as “marked decrease”. For the same molecule, the “edema in the lamina propria of the bladder (Mean)” value (bladder and the prostate; SP treated rats compared to saline treated rats, p<0.05) was 2.69±0.1, the “NGF levels in the prostate and the urine” value (bladder and the prostate; SP treated rats, not elevated in the bladder) was “significantly elevated” and the “CD74 and CD44 bladder immunostaining” value (bladder) was “increased”. The “MIF release from the bladder” value (bladder) was “significant MIF release” and the “total bladder CD74 protein and mRNA, intracellular domain CD44, p-ERK1/2 and soluble CD44 in the ILF” value (bladder) was “increased”.
